Consider 1 compound from patent publication US5593970A, “Heterocyclic anthracycline analogs” (priority 1994, dated 1997).

This data set relates to DMS 273. The data set can be described thus: NCI sulforhodamine B assay. Format: cell-based, human. For orientation: The SRB assay estimates cell density from bound dye.

On to `COC(=O)C1CC2=C(C(=O)c3c(cc4ccccc4c3O)C2=O)C(O[C@H]2C[C@H](NC(=O)C(F)(F)F)[C@H](O)[C@H](C)O2)O1` (mixture of isomers) [BCH-242, (1'S,1R,3S) and (1'S, 1S,3R)-Methyl[11-hydroxy-1-2',3',6'-trideoxy-3-trifluroacetamido-L-lyxohexopyranose)-5,12-dioxo-3,4,5,12-tetrahydroanthraceno[2,3-c]pyran-3-yl]formate], for which, for the setting “DMS 273, 2880 min”, the “Log10 LC50” value was -5.31 log molar. Moreover, the CC50 (Homo sapiens, DMS-273, 48 h, read-out: Log10 LC50, DMS 273 (converted)) was 9.77 µM.
